# Experimental data as given in patent publication US20240408279A1, “SUPRAMOLECULAR-COVALENT COMPOSITE SLURRY FOR CARTILAGE REPAIR” (Northwestern University, priority 2021, published 2024).
# Experiments:
# [1] = tested on: osteochondral defect in the femoral trochlear groove; assay: Osteochondral defect repair, femoral trochlear groove (ICRS macroscopic and modified O'Driscoll histology scoring); format: in vivo, sheep; settings: Trochlea, TGFβ (+), control = TGFβ-1 in saline; for median Macroscopic Score: 12-point scale; for median Histology Score: 24-point scale
# Experimental: (§1) Osteochondral defect filling and regeneration: Skeletally mature female sheep were anesthetized and arthrotomy was performed bilaterally. One 3-4 mm deep and 7 mm diameter osteochondral defect was made in the medial femoral condyle of each stifle and one defect of the same dimensions in the femoral trochlear groove of each stifle. In one stifle, both defects were immediately filled with the PA/HA hybrid with 1 μg/mL TGFβ-1 preloaded as indicated. In the contralateral stifle, saline was immediately added to both defects, which was supplemented with TGFβ-1 at the same concentration as used in the material treated stifle. A calcium chloride solution was then dripped on top of each defect. […] allowed the sheep to stand on the hindlimbs. Samples of each sheep's synovial fluid was antiseptically drawn immediately prior to surgery and one week following surgery. After euthanasia, gross appearance of the defect areas was assessed the ICRS macroscopic scoring system (Ref. 59; incorporated by reference in its entirety) (Table 4). The samples were then fixed in formalin, decalcified the samples and prepared sections which were stained with H&E, with safranin O, or immunohistochemically for collagen II. Sections were scored using a modified O'Driscoll scoring system (Ref. 60; incorporated by reference in its entirety) (Table 5).
# (§2) Preparation of material for surgical implant: Heat treated PA solutions prepared at 19 mM were combined with a 10 μg/mL TGFβ-1 solution (R&D Systems) dissolved in a 0.1% BSA, 4 mM HCl buffer or with the buffer alone at a 9:1 ratio. The combination was mixed by pipetting and kept on ice for 1 h. 900 μL of the mixed solution was added to 36 mg of crosslinked HA particles prepared under sterile conditions and allowed to hydrate for 1 h. The hybrid material was packed into a 1 mL syringe with a 19-gauge needle attached and kept on ice until use during surgery.
# Animal study design: Animal work was performed at the University of Wisconsin, School of Veterinary Medicine, and all procedures were approved by the Institutional Animal Use and Care Committee. Thirty-six mature female sheep ranging in age from 2-7 (mean=3.7±1.7) years weighing between 60 and 100 (mean=74±8.3) kg were used in this study. […]
# [2] = tested on: osteochondral defect in the medial femoral condyle; assay: Osteochondral defect repair, medial femoral condyle (ICRS macroscopic and modified O'Driscoll histology scoring); format: in vivo, sheep; settings: TGFβ (+); for median Macroscopic Score: 12-point scale; for median Histology Score: 24-point scale
# Experimental: as §1, §2
# Animal study design: Animal work was performed at the University of Wisconsin, School of Veterinary Medicine, and all procedures were approved by the Institutional Animal Use and Care Committee. Thirty-six mature female sheep ranging in age from 2-7 (mean=3.7±1.7) years weighing between 60 and 100 (mean=74±8.3) kg were used in this study. Animals were divided into 6 groups: (1) 1 pilot sheep sacrificed at 1 week to assess material retention, (2) 6 sheep sacrificed at 4 weeks treated with PA and TGFβ-1, with 1 sheep sacrificed prior to 4 weeks due to patellar luxation and excluded from the analysis, (3) 6 sheep sacrificed at 4 weeks with PA, but without TGFβ-1 treatment, (4) 14 sheep sacrificed at 12 weeks with PA and TGFβ-1 treatment, with 4 sheep sacrificed prior to 12 weeks due to patellar luxation and excluded from analysis, (5) 6 sheep sacrificed at 12 weeks with PA but without TGFβ-1 treatment, with 2 sacrificed prior to 12 weeks due to patellar luxation and excluded from analysis, and (6) two sheep sacrificed at 24 weeks with PA and TGFβ-1 treatment.
# Surgical technique: Prior to surgery the sheep were fasted for 24 h, and withheld water for 12 h. Sheep were administered a dose of Xylazine (0.1-0.22 mg/kg IM) in their pen to sedate them for transport to the surgical suite as well as a pre-operative dose of buprenorphine (0.0006-0.01 mg/kg IM) for analgesia. Sheep were then induced with ketamine-midazolam (2-10 mg/kg-0.1-0.3 mg/kg IM) and immediately intubated. Once intubated the sheep were maintained on isoflurane (0-4%) in 100% O2. At this time, a dose of Procaine Penicillin-G (10,000-20,000 IU/kg) IM was administered. Using aseptic techniques, a medial stifle arthrotomy was performed on both limbs of each sheep. In each stifle, one osteochondral defect was made in the medial femoral condyle and a second was made in the femoral trochlear groove using a Stryker EHD variable speed surgical drill and a cannulated drill bit. For the 24-week group, defects were made in the condyle only and not the trochlear groove. […]
# [3] = 4 weeks, control = TGFβ-1 in saline
# [4] = 12 weeks, control = TGFβ-1 in saline
substance,measurement,setting,value
Control: in TGFβ (+) groups: contralateral control defects filled with 1 μg/mL TGFβ-1 in saline solution,median Macroscopic Score,[1]; 4 weeks,5.7
same,median Histology Score,[1]; 4 weeks,10.3
same,median Macroscopic Score,[1]; 12 weeks,10.33
same,median Histology Score,[1]; 12 weeks,11
same,median Macroscopic Score,[2]; [3],5
same,median Histology Score,[2]; [3],9.7
same,median Macroscopic Score,[2]; [4],7
same,median Histology Score,[2]; [4],10
same,median Macroscopic Score,[2]; 24 weeks,9
same,median Histology Score,[2]; 24 weeks,15.3
